# Assay results: ChEMBL document CHEMBL1132897, “The basal SAR of a novel insulin receptor activator” (Bioorg Med Chem Lett, 2000)
# Legend:
# [1] = target: Insulin receptor (Homo sapiens) (UniProt P06213); assay: Percent activation of insulin receptor in CHO cells by 10 uM of compound; type: cell-based
# [2] = target: Insulin receptor (Homo sapiens) (UniProt P06213); assay: Ability to activate the insulin receptor compared to that of lead structure 1 expressed as X/1
# Sequence of Insulin receptor (Homo sapiens) (P06213 28-758 limits assumed): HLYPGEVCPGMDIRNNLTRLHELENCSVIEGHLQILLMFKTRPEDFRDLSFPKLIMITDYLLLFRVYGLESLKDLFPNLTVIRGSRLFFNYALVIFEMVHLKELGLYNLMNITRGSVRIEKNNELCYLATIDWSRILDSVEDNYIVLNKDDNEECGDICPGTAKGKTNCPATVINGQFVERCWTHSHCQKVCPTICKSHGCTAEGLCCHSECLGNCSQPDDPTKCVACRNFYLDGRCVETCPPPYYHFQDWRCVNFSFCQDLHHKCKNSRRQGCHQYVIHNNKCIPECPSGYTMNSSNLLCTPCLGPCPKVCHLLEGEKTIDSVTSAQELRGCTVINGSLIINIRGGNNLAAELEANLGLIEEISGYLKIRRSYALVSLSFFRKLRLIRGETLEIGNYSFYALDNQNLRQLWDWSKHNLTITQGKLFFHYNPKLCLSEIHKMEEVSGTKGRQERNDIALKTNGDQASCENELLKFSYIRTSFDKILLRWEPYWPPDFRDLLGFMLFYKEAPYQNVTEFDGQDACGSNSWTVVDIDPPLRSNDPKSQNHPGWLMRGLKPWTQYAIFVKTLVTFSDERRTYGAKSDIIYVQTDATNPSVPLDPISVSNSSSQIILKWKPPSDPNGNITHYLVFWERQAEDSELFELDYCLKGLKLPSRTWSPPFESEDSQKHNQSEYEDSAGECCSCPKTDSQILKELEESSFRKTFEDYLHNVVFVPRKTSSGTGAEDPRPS
# Sequence of Insulin receptor (Homo sapiens) (P06213 763-1382 limits assumed): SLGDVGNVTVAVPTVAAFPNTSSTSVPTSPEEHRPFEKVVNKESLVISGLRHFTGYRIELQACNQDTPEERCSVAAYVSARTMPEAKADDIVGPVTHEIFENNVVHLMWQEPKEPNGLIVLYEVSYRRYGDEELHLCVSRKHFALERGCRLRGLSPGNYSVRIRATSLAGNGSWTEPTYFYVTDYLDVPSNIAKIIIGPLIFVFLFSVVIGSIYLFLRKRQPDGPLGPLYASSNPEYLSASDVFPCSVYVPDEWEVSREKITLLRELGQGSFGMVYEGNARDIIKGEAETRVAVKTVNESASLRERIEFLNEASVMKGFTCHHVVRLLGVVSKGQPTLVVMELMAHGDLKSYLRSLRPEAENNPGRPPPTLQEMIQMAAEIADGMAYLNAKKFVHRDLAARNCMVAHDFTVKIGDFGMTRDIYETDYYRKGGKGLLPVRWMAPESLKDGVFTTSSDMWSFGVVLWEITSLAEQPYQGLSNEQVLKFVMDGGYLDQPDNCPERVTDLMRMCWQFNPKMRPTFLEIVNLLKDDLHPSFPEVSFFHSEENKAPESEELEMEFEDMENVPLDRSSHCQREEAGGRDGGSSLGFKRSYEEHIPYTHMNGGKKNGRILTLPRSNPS
Activation [1] [%],Relative activity [2],SMILES
79,1.05,C=CC(C)(C)c1c(C2=C(O)C(O)=C(c3c[nH]c4c(CCC(C)(C)O)cccc34)C(=O)C2=O)c2ccccc2n1C
16,0.21,C=CC(C)(C)c1[nH]c2ccccc2c1C1=C(OC)C(=O)C(c2c[nH]c3c(CC=C(C)C)cccc23)=C(O)C1=O
0,0,C=CC(C)(C)c1[nH]c2ccccc2c1C1=C(OS(=O)(=O)C(F)(F)F)C(=O)C(c2c[nH]c3c(CC=C(C)C)cccc23)=C(OS(=O)(=O)C(F)(F)F)C1=O
24,0.32,C=CC(C)(C)c1[nH]c2ccccc2c1C1=C(O)C(O)=C(c2cn(C)c3c(CC=C(C)C)cccc23)C(=O)C1=O
75,1,C=CC(C)(C)c1[nH]c2ccccc2c1C1=C(O)C(O)=C(c2c[nH]c3c(CC=C(C)C)cccc23)C(=O)C1=O
82,1.09,CCC(C)(C)c1[nH]c2ccccc2c1C1=C(O)C(O)=C(c2c[nH]c3c(CC=C(C)C)cccc23)C(=O)C1=O

# More lines, now with the values behind:
SMILES,Activation [1] [%],Relative activity [2]
C=CC(C)(C)c1[nH]c2ccccc2c1C1=C(O)C(=N\C)/C(c2c[nH]c3c(CC=C(C)C)cccc23)=C(O)C/1=N/C,1,0.01
C=CC(C)(C)c1[nH]c2ccccc2c1C1=C(O)C(O)=C(c2c[nH]c3c(CCC(C)(C)OC(=O)C(F)(F)F)cccc23)C(=O)C1=O,48,0.64
C=CC(C)(C)c1[nH]c2ccccc2c1C1=C(O)C(O)=C(c2c[nH]c3c(CCC(C)(C)O)cccc23)C(=O)C1=O,35,0.47
C=CC(C)(C)c1[nH]c2ccccc2c1C1=C(O)C(O)=C(c2c[nH]c3c(CC(O)C(C)(C)O)cccc23)C(=O)C1=O (stereo not given),75,1
C=CC(C)(C)c1[nH]c2ccccc2c1C1=C(OC)C(=O)C(c2c[nH]c3c(CC=C(C)C)cccc23)=C(OC)C1=O,0,0
C=CC(C)(C)c1c(C2=C(O)C(O)=C(c3cn(C)c4c(CC=C(C)C)cccc34)C(=O)C2=O)c2ccccc2n1C,3,0.03
C=CC(C)(C)c1[nH]c2ccccc2c1C1=C(OS(=O)(=O)C(F)(F)F)C(=O)C(c2c[nH]c3c(CC=C(C)C)cccc23)=C(N)C1=O,0,0
C=CC(C)(C)c1[nH]c2ccccc2c1C1=C(O)C(N)=C(c2c[nH]c3c(CC=C(C)C)cccc23)C(=O)C1=O,2,0.03
CCC(C)(C)c1[nH]c2ccccc2c1C1=C(O)C(O)=C(c2c[nH]c3c(CCC(C)C)cccc23)C(=O)C1=O,57,0.76
